Patent US9126941B2, “Treatment of hyperproliferative disorders with diarylhydantoin compounds” (The Regents of the University of California, priority 2005, dated 2015)
Where two headings read alike, the source gives them in different places.

What was measured:
[1] = target: T1, AR (Homo sapiens, UniProt P10275); assay: cell-based; assay type: cell-based; settings: for IC50 (nM) Reporter / Inhibitory activity on AR in reporter system: LNCaP-AR; for IC50 (nM) Reporter: 100 pM R1881, two days, No = did not inhibit AR response reporter; for Inhibitory activity on AR in reporter system: hormone refractory
T1 sequence (P10275 whole entry, looked up): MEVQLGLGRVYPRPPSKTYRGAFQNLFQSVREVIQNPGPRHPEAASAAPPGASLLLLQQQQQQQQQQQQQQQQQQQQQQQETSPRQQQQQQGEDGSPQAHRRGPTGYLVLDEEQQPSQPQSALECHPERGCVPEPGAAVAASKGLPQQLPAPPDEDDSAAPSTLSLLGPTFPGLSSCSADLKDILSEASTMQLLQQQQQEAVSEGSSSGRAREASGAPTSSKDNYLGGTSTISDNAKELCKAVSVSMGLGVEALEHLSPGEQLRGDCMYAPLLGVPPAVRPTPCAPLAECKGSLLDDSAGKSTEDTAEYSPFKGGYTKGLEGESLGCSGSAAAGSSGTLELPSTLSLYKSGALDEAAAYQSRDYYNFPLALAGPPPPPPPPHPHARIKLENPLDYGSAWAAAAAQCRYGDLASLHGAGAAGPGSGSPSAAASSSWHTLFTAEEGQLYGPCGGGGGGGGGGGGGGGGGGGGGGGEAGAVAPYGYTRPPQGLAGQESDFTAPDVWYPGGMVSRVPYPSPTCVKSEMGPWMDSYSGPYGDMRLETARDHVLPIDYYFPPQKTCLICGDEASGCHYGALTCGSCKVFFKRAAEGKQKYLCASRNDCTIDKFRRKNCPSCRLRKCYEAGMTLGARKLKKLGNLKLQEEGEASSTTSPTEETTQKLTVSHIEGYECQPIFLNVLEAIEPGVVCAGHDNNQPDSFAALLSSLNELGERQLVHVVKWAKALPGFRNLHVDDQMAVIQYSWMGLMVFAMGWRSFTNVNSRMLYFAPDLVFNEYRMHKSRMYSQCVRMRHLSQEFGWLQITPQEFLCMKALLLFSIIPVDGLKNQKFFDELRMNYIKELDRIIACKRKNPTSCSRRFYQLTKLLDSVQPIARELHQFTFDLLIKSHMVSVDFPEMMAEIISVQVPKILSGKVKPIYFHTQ
Method: The compounds were subjected to tests using an artificial AR response reporter system in a hormone refractory prostate cancer cell line. […] After two days of incubation, reporter activities were assayed.

[2] = Ranking of compounds in tiers for utility in treating prostate cancer; settings: assay not specified
From the text: The placement of compounds into tiers was based on available data coupled with analytical judgment. Data considered included in vitro assays (AR response reporter system in LNCaP cell line, PSA level measurement, MTS mitochondrial assay) and in vivo experiments (tumor size measured directly or by emission induced by luciferase reporter gene, pharmacokinetic assays based on blood plasma levels). Not every compound was subjected to each assay. […] Judgment was applied in ranking compounds relative to each other for their utility in treating prostate cancer, in particular when ranking two compounds for which the same experiments were not performed. Characteristics considered in establishing the ranking include AR antagonism activity, lack of AR agonism in hormone refractory cells, prevention of tumor growth, tumor shrinkage, and pharmacokinetic behavior, with a longer residence time in blood being advantageous.

[3] = target: T1, AR; assay: cell-based; assay type: cell-based; settings: for Rank order, most active to least active, relative PSA level (FIG. 4): 500 nM; for Decrease in PSA level of LNCaP-AR cells, comparison (FIG. 4): at concentrations of 1000 nM
Method: It is well established that PSA levels are indicators of AR activities in prostate cancer. […] The LNCaP-AR cells are a line of lymph node carcinoma of prostate cells transduced with a plasmid that makes express androgen receptors. […] After four days incubation, secreted PSA levels were assayed using PSA ELISA kits (American Qualex, San Clemente, Calif.)

[4] = target: T1, AR; assay: cell-based; settings: for Agonistic activity on AR, reporter: LN-AR, absence of R1881; for fold induction at 0.1 µM: read-out: Fold induction of AR response reporter, 0.1 μM; for fold induction at 1 µM: read-out: Fold induction of AR response reporter, 1 μM; for fold induction at 10 µM: read-out: Fold induction of AR response reporter, 10 μM
From the text: Table 2 lists the agonistic activities of different compounds.

[5] = target: T1, AR; assay: cell-based; assay type: cell-based; settings: for Agonistic activity, secreted PSA: AR over expressed LNCaP, absence of R1881; for fold induction at 0.1 µM / fold induction at 1 µM / fold induction at 10 µM: LNCaP; for fold induction at 0.1 µM: read-out: Fold induction of endogenous PSA, 0.1 μM; for fold induction at 1 µM: read-out: Fold induction of endogenous PSA, 1 μM; for fold induction at 10 µM: read-out: Fold induction of endogenous PSA, 10 μM

SMILES	IC50 [1] [nM]	IC50 (nM) PSA [3]	Agonistic activity on AR, reporter [4]	fold induction at 0.1 µM [4]	fold induction at 1 µM [4]	fold induction at 10 µM [4]	IC50 (nM) Reporter [1]	Agonistic activity, secreted PSA [5]	fold induction at 0.1 µM [5]	fold induction at 1 µM [5]	fold induction at 10 µM [5]	other results
N#Cc1ccc(N2C(=S)N(c3ccc(C#N)c(C(F)(F)F)c3)C(=O)C23CCCC3)cc1 [RD54, 4-[1-(4-cyanophenyl)-4-oxo-2-thioxo-1,3-diazaspiro[4.4]non-3-yl]-2-trifluoromethylbenzonitrile]	469											Indication of agonism [2]: could act as an agonist
Cc1ccc(N2C(=S)N(c3ccc(C#N)c(Cl)c3)C(=O)C2(C)C)cc1 [RD72]												Activity (words, overall) [2]: very poor activity
CN1C(=S)N(c2ccc(C#N)c(C(F)(F)F)c2)C(=O)C12CCC2 [RD73, 4-(5-methyl-8-oxo-6-thioxo-5,7-diazaspiro[3.4]oct-7-yl)-2-trifluoromethylbenzonitrile, reference compound]		No	strongly activated AR	14.9	19.4	35.2	No	stimulated PSA expression	6.25	17.9	25.6	Inhibitory activity on AR in reporter system [1]: no inhibitory activities
CN1C(=O)N(c2ccc(C#N)c(C(F)(F)F)c2)C(=O)C12CCC2 [RD74, 4-(5-methyl-6,8-dioxo-5,7-diazaspiro[3.4]oct-7-yl)-2-trifluoromethylbenzonitrile, reference compound]		No	strongly activated AR	11.4	14.3	30.6	No	stimulated PSA expression	7.5	15.2	23.8	Inhibitory activity on AR in reporter system [1]: no inhibitory activities
CN1C(=S)N(c2ccc(C#N)c(C(F)(F)F)c2)C(=O)C12CCCC2 [RD75, 4-(1-methyl-4-oxo-2-thioxo-1,3-diazaspiro[4.4]non-3-yl)-2-trifluoromethylbenzonitrile, reference compound]		No	strongly activated AR	17	16.6	33.8	No	stimulated PSA expression	8.13	18.2	17.5	Inhibitory activity on AR in reporter system [1]: no inhibitory activities
CN1C(=O)N(c2ccc(C#N)c(C(F)(F)F)c2)C(=O)C12CCCC2 [RD76, 4-(1-methyl-2,4-dioxo-1,3-diaza-spiro[4.4]non-3-yl)-2-trifluoromethylbenzonitrile]		No	strongly activated AR	12	19.8	39	No					Inhibitory activity on AR in reporter system [1]: no inhibitory activities
N#Cc1ccc(N2C(=O)C3(CCCC3)NC2=S)cc1C(F)(F)F [RD77, 4-(4-oxo-2-thioxo-1,3-diazaspiro[4.4]non-3-yl)-2-trifluoromethylbenzonitrile]		No	strongly activated AR	14.9	22.5	37.1	No					Inhibitory activity on AR in reporter system [1]: no inhibitory activities
CCNC(=S)N=C1N(c2ccc(C#N)c(C(F)(F)F)c2)C(=S)N(c2ccc(C)cc2)C1(C)C [RD91, 1-[3-(4-cyano-3-trifluoromethyl-phenyl)-5,5-dimethyl-2-thioxo-1-p-tolyl-imidazolidin-4-ylidene]-3-ethyl-thiourea]			no agonistic activity	1.3	1.18	1.28		no agonistic activities	1.06	1.3	0.85	
Cc1ccc(N2C(=S)N(c3ccc(C#N)c(C(F)(F)F)c3)C(=NC(=S)Nc3ccccc3)C23CCC3)cc1 [RD92, 1-[7-(4-cyano-3-trifluoromethyl-phenyl)-6-thioxo-5-p-tolyl-5,7-diaza-spiro[3.4]oct-8-ylidine]-3-phenyl-thiourea]			no agonistic activity	1.19	1.41	1.17		no agonistic activities	1.31	1.05	0.9	
Cc1ccc(N2C(=S)N(c3ccc(C#N)c(C(F)(F)F)c3)C(=NC(=S)Nc3ccc(C#N)c(C(F)(F)F)c3)C23CCC3)cc1 [RD93, 1-(4-Cyano-3-trifluoromethyl-phenyl)-3-[7-(4-cyano-3-trifluoromethyl-phenyl)-6-thioxo-5-p-tolyl-5,7-diaza-spiro[3.4]oct-8-ylidene]-thiourea]			no agonistic activity	1.26	1.1	1.3		no agonistic activities	1.44	1.3	1.05	
Cc1ccc(N2C(=S)N(c3ccc(C#N)c(I)c3)C(=O)C2(C)C)cc1 [RD100]												Activity (words, overall) [2]: good activity
N#Cc1ccc(N2C(=O)C3(CCC3)N(c3ccc(CCCC(N)=O)cc3)C2=S)cc1C(F)(F)F [RD130, 4-{4-[7-(4-Cyano-3-trifluoromethylphenyl)-8-oxo-6-thioxo-5,7-diaza-spiro[3.4]oct-5-yl]-phenyl}-butyramide]	112											PSA level, LN/AR cell line, comparison ([3]; for a given dose / concentration): less than the PSA level upon exposure to RD128 and RD129
N#Cc1ccc(N2C(=O)C3(CCC3)N(c3ccc(CCC(N)=O)cc3)C2=S)cc1C(F)(F)F [RD133, 3-{4-[7-(4-cyano-3-trifluoromethylphenyl)-8-oxo-6-thioxo-5,7-diaza-spiro[3.4]oct-5-yl]-phenyl}-propionamide]	224											Rank order, most active to least active, relative PSA level (FIG. 4) [3]: RD138>RD131>RD37>RD133>RD134>RD137>RD138>RD135>bicalutamide; Decrease in PSA level of LNCaP-AR cells, comparison (FIG. 4) [3]: greater decrease in PSA level of LNCaP-AR cells than RD135 and RD137
CNC(=O)CCc1ccc(N2C(=S)N(c3ccc(C#N)c(C(F)(F)F)c3)C(=O)C23CCC3)cc1 [RD134, 3-{4-[7-(4-Cyano-3-trifluoromethylphenyl)-8-oxo-6-thioxo-5,7-diaza-spiro[3.4]oct-5-yl]-phenyl}-N-methyl-propionamide]	234											Rank order, most active to least active, relative PSA level (FIG. 4) [3]: RD138>RD131>RD37>RD133>RD134>RD137>RD138>RD135>bicalutamide; Decrease in PSA level of LNCaP-AR cells, comparison (FIG. 4) [3]: greater decrease in PSA level of LNCaP-AR cells than RD135 and RD137
N#Cc1ccc(N2C(=O)C3(CCC3)N(c3ccc(CCC(=O)NCCO)cc3)C2=S)cc1C(F)(F)F [RD135, 3-{4-[7-(4-cyano-3-trifluoromethylphenyl)-8-oxo-6-thioxo-5,7-diaza-spiro[3.4]oct-5-yl]-phenyl}-N-(2-hydroxyethyl)-propionamide]	732											Rank order, most active to least active, relative PSA level (FIG. 4) [3]: RD138>RD131>RD37>RD133>RD134>RD137>RD138>RD135>bicalutamide; Decrease in PSA level of LNCaP-AR cells, comparison (FIG. 4) [3]: greater decrease in PSA level than bicalutamide
N#Cc1ccc(N2C(=O)C3(CCC3)N(c3ccc(N4CCNCC4)cc3)C2=S)cc1C(F)(F)F [RD137, 4-[8-Oxo-5-(4-piperazin-1-yl-phenyl)-6-thioxo-5,7-diazaspiro[3,4]oct-7-yl]-2-trifluoromethylbenzonitrile]	718											Rank order, most active to least active, relative PSA level (FIG. 4) [3]: RD138>RD131>RD37>RD133>RD134>RD137>RD138>RD135>bicalutamide; Decrease in PSA level of LNCaP-AR cells, comparison (FIG. 4) [3]: greater decrease in PSA level than bicalutamide
CS(=O)(=O)N1CCN(c2ccc(N3C(=S)N(c4ccc(C#N)c(C(F)(F)F)c4)C(=O)C34CCC4)cc2)CC1 [RD138, 4-{5-[4-(4-methanesulfonylpiperazin-1-yl)-phenyl]-8-oxo-6-thioxo-5,7-diazaspiro[3.4]oct-7-yl}-2-trifluoromethylbenzonitrile]	138											Rank order, most active to least active, relative PSA level (FIG. 4) [3]: RD138>RD131>RD37>RD133>RD134>RD137>RD138>RD135>bicalutamide; Decrease in PSA level of LNCaP-AR cells, comparison (FIG. 4) [3]: greater decrease in PSA level of LNCaP-AR cells than RD135 and RD137
CC1(C)C(=O)N(c2ccc(C#N)c(C(F)(F)F)c2)C(=S)N1CCCCO [RU 59063, 4-[3-(4-hydroxybutyl)-4,4-dimethyl-5-oxo-2-thioxoimidazolidin-1-yl]-2-trifluoromethylbenzonitrile, reference compound]		No	strongly activated AR	11	20.8	34.6	No(*)	stimulated PSA expression	6.88	11.5	21.5	
